Read-outs that look alike come from different tables or passages of the source.
Key:
MiaPaca-2 cells = experiment: MiaPaca-2 cell proliferation assay; format: cell-based; settings: Homo sapiens, MIA PaCa-2
Description: Miapaca-2 cells (catalog #CRL-1420) are obtained from the American Type Culture Collect (ATTC, Manassas, VA). Briefly, cells were grown in DMEM supplemented with 10% characterized fetal bovine serum (Invitrogen, Carlsbad, CA), 2.5% New Zealand sourced horse serum and 1% Penicillin/Streptomycin/L-Glutamine at 37° C., 5% CO2, and 95% humidity. Cells are expanded until reaching 70-95% confluency at which point they are sub-cultured or harvested for assay use. A serial dilution of test compound is dispensed into a 384-well black clear bottom plate in triplicate. Seven hundred fifty cells are added per well in 50 μL complete growth medium in the 384-well plate. Plates are incubated for 67-72 h at 37° C., 5% CO2, and 95% humidity. At the end of the incubation, 10 μL of a 440 μM solution of resazurin (Sigma, St. Louis, MO) in PBS is added to each well of the plate and plates are incubated for an additional 5-6 h at 37° C., 5% CO2, and 95% humidity. Plates are read on a Synergy2 or equivalent reader (Biotek, Winooski VT) using an excitation of 540 nm and an emission of 600 nm. Data is analyzed using Prism software (GraphPad, San Diego, CA) to calculate IC50 values.

HPAF-II cells = experiment: HPAF-II cell proliferation assay; format: cell-based; settings: Homo sapiens
Description: (§1) HPAF-II cells (catalog #CRL-1997) are obtained from the American Type Culture Collect (ATCC, Manassas, VA). Briefly, cells are grown in Minimum Essential Media supplemented with 10% characterized fetal bovine serum (Invitrogen, Carlsbad, CA) and 1% Penicillin/Streptomycin/L-Glutamine at 37° C., 5% CO2, and 95% humidity. Cells are expanded until reaching 70-95% confluency at which point they are sub-cultured or harvested for assay use. A serial dilution of test compound is dispensed into a 384-well black clear bottom plate in triplicate. 750 cells are added per well in 50 μL complete growth medium in the 384-well plate. Plates are incubated for 115 to 120 h at 37° C., 5% CO2, and 95% humidity. At the end of the incubation, 40 μL of a […] solution of resazurin (Sigma, St. Louis, MO) in PBS is added to each well of the plate and plates are incubated for an additional 18 to 24 h at 37° C., 5% CO2, and 95% humidity. Plates are read on a Synergy2 or equivalent reader (Biotek, Winooski, VT) using an excitation of 540 nm and an emission of 600 nm. Data is analyzed using Prism software (Graphpad, San Diego, CA) to calculate IC50 values.

HCT-116 cells = experiment: HCT-116 cell proliferation assay; format: cell-based; settings: for IC50: Homo sapiens
Description: HCT-116 cells (catalog #CCL-247) are obtained from the American Type Culture Collect (ATCC, Manassas, VA). Briefly, cells are grown in McCoy's 5A supplemented with 10% characterized fetal bovine serum (Invitrogen, Carlsbad, CA) and 1% Penicillin/Streptomycin/L-Glutamine at 37° C., 5% CO2, and 95% humidity. Cells are expanded until reaching 70-95% confluency at which point they are sub-cultured or harvested for assay use. A serial dilution of test compound is dispensed into a 384-well black clear bottom plate in triplicate. 375 cells are added per well in 50 μL complete growth medium in the 384-well plate. Plates are incubated for 67 to 72 h at 37° C., 5% CO2, and 95% humidity. At the end of the incubation, 40 μL of a […] solution of resazurin (Sigma, St. Louis, MO) in PBS is added to each well of the plate and plates are incubated for an additional 4 to 5 h at 37° C., 5% CO2, and 95% humidity. Plates are read on a Synergy2 or equivalent reader (Biotek, Winooski, VT) using an excitation of 540 nm and an emission of 600 nm. Data is analyzed using Prism software (Graphpad, San Diego, CA) to calculate IC50 values.

[1] = molecular target: T1, C-Raf kinase (SEQ ID NO: 2) (Homo sapiens, UniProt P04049, Y340D/Y341D); experiment: Biochemical assay for C-Raf (coupled pyruvate kinase/lactate dehydrogenase); settings: 1 mM ATP; read-out: CRAF (inhibition of biochemical activity, IC50)
T1 construct: C-Raf residues 306-end; Y340D, Y341D with N-; GST (N); purchased Sigma
T1 sequence (P04049 307-648 Y340D/Y341D): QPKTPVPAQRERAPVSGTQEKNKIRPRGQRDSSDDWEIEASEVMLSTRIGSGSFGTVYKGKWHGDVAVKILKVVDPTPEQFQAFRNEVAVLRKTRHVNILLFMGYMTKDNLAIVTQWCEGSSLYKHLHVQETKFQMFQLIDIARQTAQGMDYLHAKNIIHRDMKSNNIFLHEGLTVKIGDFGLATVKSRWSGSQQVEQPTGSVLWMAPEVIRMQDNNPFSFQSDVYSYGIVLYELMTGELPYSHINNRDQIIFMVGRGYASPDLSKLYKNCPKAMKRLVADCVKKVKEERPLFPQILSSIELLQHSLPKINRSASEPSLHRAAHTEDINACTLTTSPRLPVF

Pa16c cells = experiment: Pa16c cell proliferation assay; format: cell-based; settings: 67 to 72 h incubation, resazurin; read-out: Pa16c (inhibition of cell proliferation, IC50)
Description: as §1, with “Pa16c” for “HPAF-II”, “cells” for “cells (catalog #CRL-1997)”, “Dr. Channing Der, University of North Carolina at Chapel Hill.” for “the American Type Culture Collect (ATCC, Manassas, VA).”, “Dulbecco's Modified Eagle Medium” for “Minimum Essential Media”, “67” for “115”, “72” for “120”

[2] = molecular target: T2, B-Raf kinase (SEQ ID NO: 1) (Homo sapiens, UniProt P15056); experiment: Biochemical assay for B-Raf (coupled pyruvate kinase/lactate dehydrogenase); settings: 1 mM ATP; read-out: BRAF (inhibition of biochemical activity, IC50)
T2 construct: GST (N); purchased Sigma
T2 sequence (P15056 416-766): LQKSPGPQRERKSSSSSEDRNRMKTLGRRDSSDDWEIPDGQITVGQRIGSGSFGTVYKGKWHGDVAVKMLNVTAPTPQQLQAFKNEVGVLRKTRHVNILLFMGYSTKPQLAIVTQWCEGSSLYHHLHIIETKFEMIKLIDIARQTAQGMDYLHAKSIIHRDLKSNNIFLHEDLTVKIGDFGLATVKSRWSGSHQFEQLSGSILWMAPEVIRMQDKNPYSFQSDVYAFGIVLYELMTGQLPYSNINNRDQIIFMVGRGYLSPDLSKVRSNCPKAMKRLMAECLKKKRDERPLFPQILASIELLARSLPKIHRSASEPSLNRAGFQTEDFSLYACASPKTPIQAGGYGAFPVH

[3] = Table 4, mutant KRAS pancreatic cancer cell line, anti-proliferative, read-out: MiaPaca-2
[4] = Table 4, mutant KRAS colorectal cancer cell line, anti-proliferative, read-out: HCT-116
[5] = 67-72 h incubation, resazurin, read-out: MiaPaca-2 (inhibition of cell proliferation, IC50)
[6] = HPAF-II, 115 to 120 h incubation, resazurin, read-out: HPAF-II (inhibition of cell proliferation, IC50)
[7] = HCT-116, 67 to 72 h incubation, resazurin, read-out: HCT-116 (inhibition of cell proliferation, IC50)

| SMILES | IC50 (MiaPaca-2 cells; [3]) [nM] | IC50 (HPAF-II cells; Table 4, mutant KRAS pancreatic cancer cell line, anti-proliferative, read-out: HPAF-II) [nM] | IC50 (HCT-116 cells; [4]) [nM] | IC50 (MiaPaca-2 cells; [5]) [nM] | IC50 [1] [nM] | IC50 (Pa16c cells) [nM] | IC50 (HPAF-II cells; [6]) [nM] | IC50 [2] [nM] | IC50 (HCT-116 cells; [7]) [nM] | HCT-116 (inhibition of cell proliferation, IC50) (HCT-116 cells; 67 to 72 h incubation, resazurin) |
| --- | --- | --- | --- | --- | --- | --- | --- | --- | --- | --- |
| CC(C)(C)c1nc(-c2cccc(NS(=O)(=O)c3c(F)cccc3F)c2F)c(-c2ccnc(N)n2)s1 [Dabrafenib, dabrafenib, reference compound] | 1000 to 10000 | 1000 to 10000 | 1000 to 10000 | – | – | – | – | – | – | – |
| Cc1ccc(NC(=O)c2cc(C(F)(F)F)cnn2)cc1-c1ccnc(N2CCOCC2)c1 [Example 1, N-(4-methyl-3-(2-morpholinopyridin-4-yl)phenyl)-5-(trifluoromethyl)pyridazine-3-carboxamide] | – | – | – | < 100 | 100 to 500 | 100 to 500 | 100 to 500 | 100 to 500 | 100 to 500 | – |
| Cc1ccc(NC(=O)c2cc(C3CC3)cnn2)cc1-c1ccnc(N2CCOCC2)c1 [Example 2, 5-cyclopropyl-N-(4-methyl-3-(2-morpholinopyridin-4-yl)phenyl)pyridazine-3-carboxamide] | – | – | – | 100 to 500 | < 100 | 1000 to 10000 | 100 to 500 | 100 to 500 | 100 to 500 | – |
| Cc1ccc(NC(=O)c2cc(C(F)(F)F)cnn2)cc1-c1cc(C2CC2)nc(N2CCOCC2)c1 [Example 3] | – | – | – | < 100 | 100 to 500 | < 100 | 100 to 500 | 100 to 500 | 100 to 500 | – |
| Cc1cc(-c2cc(NC(=O)c3cc(C(F)(F)F)cnn3)ccc2C)cc(N2CCOCC2)n1 [Example 4] | – | – | – | 100 to 500 | < 100 | < 100 | < 100 | < 100 | 100 to 500 | – |
| Cc1ccc(NC(=O)c2ccc(C(F)(F)F)nn2)cc1-c1cc(N[C@H](C)CO)nc(N2CCOCC2)c1 [Example 5] | – | – | – | 100 to 500 | 500 to 1000 | 1000 to 10000 | 1000 to 10000 | 1000 to 10000 | 1000 to 10000 | – |
| Cc1ccc(NC(=O)c2cc(C(F)(F)F)cnn2)cc1-c1cc(N[C@H](C)CO)nc(N2CC3CC(C2)O3)c1 [Example 7] | – | – | – | < 100 | 100 to 500 | 500 to 1000 | < 100 | 100 to 500 | – | ++ ++ |
| Cc1ccc(NC(=O)c2cc(C(F)(F)F)cnn2)cc1-c1ccnc(N2CCOC(C(F)(F)F)C2)c1 (stereo not shown) [Example 8] | – | – | – | 100 to 500 | 1000 to 10000 | 500 to 1000 | 500 to 1000 | 1000 to 10000 | 100 to 500 | – |
| Cc1ccc(NC(=O)c2cncc(Cl)n2)cc1-c1cc(N[C@H](C)CO)nc(N2CCOCC2)c1 [Example 9] | – | – | – | 1000 to 10000 | 100 to 500 | 1000 to 10000 | 500 to 1000 | 100 to 500 | 1000 to 10000 | – |
| Cc1ccc(NC(=O)c2cc(C(F)(F)F)cnn2)cc1-c1nccc(N2CCOCC2)n1 [Example 10] | – | – | – | 1000 to 10000 | 1000 to 10000 | 1000 to 10000 | 1000 to 10000 | 1000 to 10000 | 1000 to 10000 | – |
| Cc1ccc(NC(=O)c2cnc(C(F)(F)F)nc2)cc1-c1cc(OCCO)nc(N2CCOCC2)c1 [Example 11] | – | – | – | 100 to 500 | 500 to 1000 | 500 to 1000 | 100 to 500 | 1000 to 10000 | 100 to 500 | – |
| Cc1ccc(NC(=O)c2cnc(C(F)(F)F)nc2)cc1-c1cc(N[C@H](C)CO)nc(N2CCOCC2)c1 [Example 12] | – | – | – | 500 to 1000 | 100 to 500 | 1000 to 10000 | 1000 to 10000 | 500 to 1000 | 1000 to 10000 | – |
| Cc1ccc(NC(=O)c2cncc(C(C)C)c2)cc1-c1cc(N[C@H](C)CO)nc(N2CCOCC2)c1 [Example 13] | – | – | – | 500 to 1000 | < 100 | 1000 to 10000 | 500 to 1000 | < 100 | 100 to 500 | – |
| Cc1ccc(NC(=O)c2cc(C(F)(F)F)cnn2)cc1-c1ccnc(N2C[C@@H](C)O[C@@H](C)C2)c1 [Example 84] | – | – | – | 1000 to 10000 | 1000 to 10000 | – | 1000 to 10000 | 1000 to 10000 | 1000 to 10000 | – |
| CCCS(=O)(=O)Nc1ccc(F)c(C(=O)c2c[nH]c3ncc(-c4ccc(Cl)cc4)cc23)c1F [Vemurafenib, vemurafenib, reference compound] | 1000 to 10000 | – | 1000 to 10000 | – | – | – | – | – | – | – |

Reference: patent US20250206729A1, “DUAL RAF AND TUBULIN INHIBITORS AND METHODS OF USE THEREOF” (Deciphera Pharmaceuticals, LLC, priority 2023, published 2025)
